Data: patent publication US20190231844A1, “ORAL APPLICATION OF THIOPEPTCIN” (NANJING BIOTICA PHARMACEUTICAL COMPANY, priority 2015, published 2019)
≈ marks a conversion by molar mass, not a printed value.

Tests used:
[1] = Pharmacokinetics of thiopeptcin after oral (intragastric) administration, plasma by LC-MS/MS; assay type: in vivo; settings: after intragastric administration in rats, all doses and time points
Method: 30 μl of blood or urine sample was added into 90 μl of methanol containing 5 ng/ml verapamil. After vortexing for 3 min and centrifuging at 14,000 rpm for 5 min, 80 μl of supernatant was taken for LC-MS/MS analysis.
Conditions for LC were as follows: • Column: Waters Symmetry 300 C18 3.5 μm 2.1*100 mm; • Mobile phase A: 10 mM ammonium acetate+0.02% aqueous ammonia solution; mobile phase B: methanol; • Duration of analysis: 5.2 min; injection volume: 5 μL; column temperature: 25° C.; gradient elution:
Conditions for MS/MS analysis were as follows: • Mass Spectrometer: Positive Ion Mode (Agilent 6460B) • Detection of ion pairs: Thiopeptcin: 1437.3-172.0, fragment=135, CE=22; • Verapamil (internal standard): 455.2→165.1, fragment=135, CE=25; • Mass spectrometry parameters: gas temp at 350 ° C.; gas flow at 10 L/min; nebulizer of 40 psi; sheath gas flow at 10 L/min and sheath gas heater at 400° C.
Preparation of thiopeptcin: Certain amount of thiopeptcin was dissolved in a mixed solvent of pH 5.0 containing 10% PEG400, 1% Tween 80 and 5 mg/ml citric acid. The solution was shaken to be clear for intragastric administration.
Male rats were divided into 4 groups with high, medium, and low doses according to experimental purposes. The high dose group was 50 mg/kg, the middle dose group was 25 mg/kg, the low-1 dose group was 5 mg/kg and the low-2 dose group was 1 mg/kg. […]

[2] = test system: Reduced-sensitivity strain to Vancomycin C. difficile LCN 0012; assay: MIC by broth dilution method (CLSI M11-A7); assay type: cell-based; settings: Clostridioides difficile
[3] = test system: Erythrocin-resistant strain C. difficile LCN 0081; assay: MIC by broth dilution method (CLSI M11-A7); assay type: cell-based; settings: Clostridioides difficile, read-out: Sensitivity of C. difficile (MIC)
C. difficile ATCC 9689 = assay: MIC by broth dilution method (CLSI M11-A7); assay type: cell-based; settings: Clostridioides difficile, ATCC9689, read-out: Sensitivity of C. difficile (MIC)
[4] = test system: Reduced-sensitivity strain to Metronidazole C. difficile LCN 0048; assay: MIC by broth dilution method (CLSI M11-A7); assay type: cell-based; settings: Clostridioides difficile
[5] = test system: Clindamycin-resistant strain C. difficile LCN 0027; assay: MIC by broth dilution method (CLSI M11-A7); assay type: cell-based; settings: Clostridioides difficile, read-out: Sensitivity of C. difficile (MIC)
[6] = test system: clinically isolated strain LCN 001; assay: MIC by broth dilution method (CLSI M11-A7); assay type: cell-based; settings: Clostridioides difficile, LCN001, read-out: Sensitivity of C. difficile (MIC)

SMILES	plasma concentration of thiopeptcin (below limit of quantification) [1]	MIC [2]	MIC [3]	MIC (C. difficile ATCC 9689)	MIC [4]	MIC [5]	MIC [6]
C=C(NC(=O)c1csc(-c2nc3c(cc2O)-c2nc(cs2)C(=O)N[C@@H]([C@@H](C)O)C(=O)N/C(=C(\C)OC)c2nc(cs2)C(=O)N[C@@H]2c4nc(cs4)C(=O)N[C@@H](COC(=O)c4c5c6c(cccc6n4O)COC(=O)[C@@H](OC4C[C@](C)(O)[C@H](N(C)C)[C@H](C)O4)C2OC5)c2nc-3cs2)n1)C(N)=O (stereo partly shown) [Thiopeptcin]	< 1 ng/mL	0.025 to 0.05 µg/mL (≈ 0.0174 to 0.0348 µM)	0.005 µg/mL (≈ 0.00348 µM)	0.005 µg/mL (≈ 0.00348 µM)	0.005 to 0.01 µg/mL (≈ 0.00348 to 0.00696 µM)	0.025 µg/mL (≈ 0.0174 µM)	0.025 µg/mL (≈ 0.0174 µM)
CN[C@H](CC(C)C)C(=O)N[C@H]1C(=O)N[C@@H](CC(N)=O)C(=O)N[C@H]2C(=O)N[C@H]3C(=O)N[C@H](C(=O)N[C@H](C(=O)O)c4cc(O)cc(O)c4-c4cc3ccc4O)[C@H](O)c3ccc(c(Cl)c3)Oc3cc2cc(c3O[C@@H]2O[C@H](CO)[C@@H](O)[C@H](O)[C@H]2O[C@H]2C[C@](C)(N)[C@H](O)[C@H](C)O2)Oc2ccc(cc2Cl)[C@H]1O [Vancomycin, reference compound]		4 to 8 µg/mL (≈ 2.76 to 5.52 µM)	1.5 µg/mL (≈ 1.04 µM)	0.25 µg/mL (≈ 0.173 µM)	0.8 to 3 µg/mL (≈ 0.552 to 2.07 µM)	1.5 µg/mL (≈ 1.04 µM)	0.5 µg/mL (≈ 0.345 µM)
